# Target: T1, mouse Tas2r144 (Mus musculus, UniProt Q7TQB8)
# T1 construct: expressed in transfected cells; host or cells: HEK293T-Gα16gust44
# Test: Calcium imaging assay (FLIPR), HEK293T-Gα16gust44 cells transfected with mouse Tas2r144
# Type: cell-based
# Settings: for Δ F/F: Tas2r144
# T1 sequence (Q7TQB8 whole entry): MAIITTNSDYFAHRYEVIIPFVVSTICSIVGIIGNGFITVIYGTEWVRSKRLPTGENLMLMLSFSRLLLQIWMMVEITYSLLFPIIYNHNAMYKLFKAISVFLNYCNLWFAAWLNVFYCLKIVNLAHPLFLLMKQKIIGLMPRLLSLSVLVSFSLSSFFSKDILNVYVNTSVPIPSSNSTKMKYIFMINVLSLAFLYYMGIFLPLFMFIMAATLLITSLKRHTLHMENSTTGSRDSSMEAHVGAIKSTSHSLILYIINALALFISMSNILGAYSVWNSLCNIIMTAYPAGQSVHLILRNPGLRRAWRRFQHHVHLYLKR
smiles,measurement,setting,value
"C[C@H](CCC(=O)NCCS(=O)(=O)O)[C@H]1CC[C@H]2[C@@H]3[C@H](O)C[C@@H]4C[C@H](O)CC[C@]4(C)[C@H]3C[C@H](O)[C@]12C [Taurocholic Acid, taurocholic acid]",Δ F/F,"conc. 0,01 mM",-0.002199
same,Δ F/F,"conc. 0,1 mM",0.02935
same,Δ F/F,"conc. 0,03 mM",0.001887
same,Δ F/F,"conc. 0,3 mM",0.09426
same,Δ F/F,"conc. 0,003 mM",-2.869e-5
same,RLU,Time 0 s,0 RLU
same,RLU,Time 2 s,20.3472 RLU
same,RLU,Time 4 s,-2.315 RLU
same,RLU,Time 6 s,2.885 RLU
same,RLU,Time 8 s,19.0475 RLU
same,RLU,Time 12 s,10.0521 RLU
same,RLU,Time 14 s,38.5551 RLU
same,RLU,Time 16 s,31.9896 RLU
same,RLU,Time 18 s,16.9759 RLU
same,RLU,Time 18.781 s,35.5911 RLU
same,RLU,Time 20.781 s,-26.0614 RLU
same,RLU,Time 22.781 s,10.3855 RLU
same,RLU,Time 24.781 s,42.5149 RLU
same,RLU,Time 26.781 s,75.1117 RLU
same,RLU,Time 28.781 s,107.959 RLU
same,RLU,Time 30.781 s,191.931 RLU
same,RLU,Time 32.781 s,233.393 RLU
same,RLU,Time 34.781 s,329.647 RLU
same,RLU,Time 36.781 s,353.155 RLU
same,RLU,Time 38.781 s,375.923 RLU
same,RLU,Time 40.781 s,418.403 RLU
same,RLU,Time 42.781 s,459.472 RLU
same,RLU,Time 44.781 s,478.994 RLU
same,RLU,Time 46.781 s,502.94 RLU
same,RLU,Time 48.781 s,488.439 RLU
same,RLU,Time 50.781 s,507.687 RLU
same,RLU,Time 52.781 s,535.446 RLU
same,RLU,Time 54.781 s,537.48 RLU
same,RLU,Time 56.781 s,552.298 RLU
same,RLU,Time 58.781 s,553.568 RLU
same,RLU,Time 60.781 s,540.78 RLU
same,RLU,Time 62.781 s,553.576 RLU
same,RLU,Time 64.781 s,587.565 RLU
same,RLU,Time 66.781 s,607.94 RLU
same,RLU,Time 68.781 s,577.506 RLU
same,RLU,Time 70.781 s,560.61 RLU
same,RLU,Time 72.781 s,573.499 RLU
same,RLU,Time 74.781 s,563.961 RLU
same,RLU,Time 76.781 s,534.766 RLU
same,RLU,Time 78.781 s,571.912 RLU
same,RLU,Time 80.781 s,551.232 RLU
same,RLU,Time 82.781 s,526.613 RLU
same,RLU,Time 84.781 s,546.451 RLU
same,RLU,Time 86.781 s,562.077 RLU
same,RLU,Time 88.781 s,533.968 RLU
same,RLU,Time 90.781 s,548.478 RLU
same,RLU,Time 92.781 s,529.823 RLU
same,RLU,Time 94.781 s,519.583 RLU
same,RLU,Time 96.781 s,507.965 RLU
same,RLU,Time 98.781 s,551.349 RLU
same,RLU,Time 100.781 s,524.649 RLU
same,RLU,Time 102.781 s,541.47 RLU
same,RLU,Time 104.781 s,532.417 RLU
same,RLU,Time 106.781 s,501.886 RLU
same,RLU,Time 108.781 s,527.817 RLU
same,RLU,Time 110.781 s,463.149 RLU
same,RLU,Time 112.781 s,531.02 RLU
same,RLU,Time 114.781 s,478.341 RLU
same,RLU,Time 116.781 s,478.013 RLU
same,RLU,Time 118.781 s,466.916 RLU
same,RLU,Time 120.781 s,480.033 RLU
same,RLU,Time 122.781 s,446.768 RLU
same,RLU,Time 124.781 s,466.738 RLU
same,RLU,Time 126.781 s,436.51 RLU
same,RLU,Time 128.781 s,391.35 RLU
same,RLU,Time 130.781 s,423.189 RLU
same,RLU,Time 132.781 s,388.666 RLU
same,RLU,Time 134.781 s,393.586 RLU
same,RLU,Time 136.781 s,381.514 RLU
same,RLU,Time 137.562 s,357.695 RLU
same,RLU,Time 143.562 s,342.181 RLU
same,RLU,Time 149.562 s,317.247 RLU
same,RLU,Time 155.562 s,281.598 RLU
same,RLU,Time 161.562 s,257.735 RLU
same,RLU,Time 167.562 s,210.766 RLU
same,RLU,Time 173.562 s,206.542 RLU
same,RLU,Time 179.562 s,190.508 RLU
same,RLU,Time 185.562 s,200.355 RLU
same,RLU,Time 191.562 s,160.215 RLU
same,RLU,Time 197.562 s,155.746 RLU
same,RLU,Time 203.562 s,134.432 RLU
same,RLU,Time 209.562 s,105.802 RLU
same,RLU,Time 215.562 s,143.523 RLU
same,RLU,Time 221.562 s,59.3524 RLU
same,RLU,Time 227.562 s,55.9412 RLU
same,RLU,Time 233.562 s,52.6104 RLU
same,RLU,Time 239.562 s,63.4802 RLU
same,RLU,Time 245.562 s,58.9605 RLU
same,RLU,Time 293.562 s,59.2604 RLU
same,RLU,Time 299.562 s,83.1975 RLU
same,RLU,Time 305.562 s,80.6402 RLU
same,RLU,Time 311.562 s,35.6084 RLU
same,RLU,Time 317.562 s,31.2984 RLU
same,RLU,Time 323.562 s,-1.058 RLU
same,RLU,Time 329.562 s,12.6222 RLU
same,RLU,Time 335.562 s,-16.6341 RLU
same,RLU,Time 341.562 s,9.34 RLU
same,RLU,Time 347.562 s,17.8158 RLU
same,RLU,Time 353.562 s,33.5062 RLU
same,RLU,Time 359.562 s,34.8754 RLU
same,Activation threshold concentration Tas2r144,p < 0.01 vs empty vector,300 µM
